Experimental data reported in ChEMBL document CHEMBL1777765, “Synthesis of 5-thiodidehydropyranylcytosine derivatives as potential anti-HIV agents” (2011).
The source made the active and inactive calls. The rule behind the calls is not given here.

Assays:
[1] = system: Human immunodeficiency virus 1; test: Antiviral activity against HIV1 infected in human PBMC assessed as inhibition of viral replication at 1 to 1000 nM by p24 HIV antigen capture assay; assay type: functional, organism-based
[2] = system: Human immunodeficiency virus 1; test: Antiviral activity against HIV1 infected in human PBMC assessed as inhibition of viral replication at 10 nM by p24 HIV antigen capture assay relative to control; assay type: functional
[3] = system: Human immunodeficiency virus 1; test: Antiviral activity against HIV1 infected in human PBMC assessed as inhibition of viral replication at 100 nM by p24 HIV antigen capture assay relative to control; assay type: functional

Row | SMILES | inhibition [1] | inhibition at 0.01 µM [2] [%] | inhibition at 0.1 µM [3] [%]
1 | Nc1ccn([C@H]2C=C[C@@H](CO)[C@H](CO)S2)c(=O)n1 | Active |  | 
2 | Nc1ccn([C@@H]2CS[C@H](CO)O2)c(=O)n1 [LAMIVUDINE] |  | 37 | 
3 | Nc1ccn([C@@H]2C=C[C@@H](CO)[C@H](CO)S2)c(=O)n1 (racemic) |  | 65 | 75
